Test results taken from US12286437B2, “Cardiac sarcomere inhibitors” (Cytokinetics, Inc., priority 2021, dated 2025).
Where two headings read alike, the source gives them in different places.

Columns and labels:
[1] = Mouse single dose pharmacokinetics; assay type: in vivo, C57BL/6 mice; conditions: male, C57BL/6, plasma, 0.5 mg/kg, IV; for Vd: read-out: Vss; for half-life: read-out: t½ (converted)
Protocol: Male C57BL/6 mice (18-25 g, 6-8 weeks old) were obtained from Zhejiang Vital River Laboratory Animal Technology Co., Ltd. All animals for IV administration had free access to food and water. The IV dosing was performed through tail vein. The IV dose solution for the Test Articles was prepared in 10% DMA/20% PG/70% HPβCD solution (40% w/v aqueous HPβCD) at a concentration of 0.1 mg/mL. The oral dosing suspension was prepared by suspending Test Article in 0.5% HPMC/0.1% Tween 80 in water at a concentration 0.2 mg/mL. Concentrations of IV and PO doses were measured at the end of the study. Pharmacokinetic (PK) parameters were calculated using the nominal dose values if the measured values were within 20% of the nominal values. A group of 15 mice received the IV dose where the volume was 5 mL/kg. Another group of 15 mice received by oral gavage of Test Article at 1 mg/kg. The oral dose volume was 5 mL/kg. Sparse blood samples were collected from groups of three mice via retro-orbital bleeding, placed into a K2EDTA microtainer tube and maintained on ice until centrifugation to obtain plasma. Each designated group of mice were bled at two-time points. The time points were predose (PO only), 5 (IV only), 15, 30 minutes, 1, 2, 4, 6, 8 and 24 hours postdose. Blood samples were centrifuged and the collected plasma was stored at −80° C. until analysis. Plasma samples were analyzed for Test Article concentrations using an LC/MS/MS method. Briefly, a 50 μL aliquot of each plasma sample was mixed with 100 μL of acetonitrile that contained an internal standard (IS). The mixture was vortexed and centrifuged. Ten (10) μL of the resulting solution was injected onto a reverse-phase C18 column and the resultant peaks detected on a LC/MS/MS equipped with a turbo ionspray ionization source. Sample concentrations below the limit of quantification (BLQ) were treated as zero for PK calculations. Composite PK parameters were estimated from a maximum of two sampling points per mouse and three mice per sampling point and the sparse data option of WinNonlin was used for noncompartmental analysis of the concentration-time data (Phoenix WinNonLin software, version 64; Pharsight, Mountain View, CA). The elimination rate constant (k) was calculated as the absolute value of the slope of the linear regression of logarithm of the concentration versus time for the last three data points of the concentration-time profiles. Apparent elimination half-life (t1/2) values were calculated as ln(2)/k. Area under the concentration-time curve (AUC) values were estimated using linear trapezoidal method. AUCt values were calculated from the dosing time to the last measurable concentration. AUC∞ values were calculated as the sum of the corresponding AUCt and the ratio of the last detectable concentration divided by k. Plasma clearance (CL) was calculated from Dose/AUC∞. Mean resident time (MRT) was estimated by moment analysis. Volume of distribution at steady state (Vss) was calculated from MRT∞×CL. Maximum concentration (Cmax) and time to reach Cmax (tmax) were recorded as observed. Bioavailability was calculated dAUC∞,po/dAUC∞,iv×100% where dAUC was the dose normalized AUC value. Data for compounds tested are provided in Table B. Compounds tested were prepared in accordance with the synthetic procedures described herein.

CYP2B6 = biological target: T1, CYP2B6 (Homo sapiens, UniProt P20813); assay: Time-dependent inhibition of CYP2B6 in human liver microsomes; assay type: in vitro ADME; conditions: for (% Activity NADPH T0)/(% Activity NADPH T30): fold change; for activity at 30 min, 25 µM / activity at 0 min, 25 µM / activity at 30 min, 50 µM / activity at 0 min, 50 µM: pooled human liver microsomes, human liver microsomes; for activity at 30 min, 25 µM / activity at 30 min, 50 µM: after 30 minutes incubation, read-out: % Activity NADPH T30; for activity at 0 min, 25 µM / activity at 0 min, 50 µM: time zero, read-out: % Activity NADPH T0
T1 construct: Pooled human microsomes and selective CYP probe substrates were used; from tissue; host or cells: pooled human liver microsomes
T1 sequence (P20813 1-491): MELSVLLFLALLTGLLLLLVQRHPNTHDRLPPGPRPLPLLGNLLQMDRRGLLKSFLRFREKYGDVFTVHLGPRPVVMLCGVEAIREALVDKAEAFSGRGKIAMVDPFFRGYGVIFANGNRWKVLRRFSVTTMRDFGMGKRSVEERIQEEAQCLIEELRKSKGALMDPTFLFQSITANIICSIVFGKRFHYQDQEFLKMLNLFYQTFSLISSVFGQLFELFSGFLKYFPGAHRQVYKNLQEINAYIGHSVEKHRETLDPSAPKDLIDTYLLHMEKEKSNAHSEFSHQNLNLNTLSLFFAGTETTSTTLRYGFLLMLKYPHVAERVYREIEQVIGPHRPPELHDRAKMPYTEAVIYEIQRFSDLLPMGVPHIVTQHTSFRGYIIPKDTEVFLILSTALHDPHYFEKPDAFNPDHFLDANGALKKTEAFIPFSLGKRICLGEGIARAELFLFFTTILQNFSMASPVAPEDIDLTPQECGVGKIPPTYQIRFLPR
Protocol: (§1) An assessment of the time-dependent Inhibitory Potential of the test compounds against Principal Human Cytochrome P450 Isozymes using Human Liver Microsomes was also carried out using standard methods (Grimm et al, Drug Metab. Dispos., July; 37(7):1355-70. doi: 10.1124/dmd.109.026716, 2009). Pooled human microsomes and selective CYP probe substrates were used for in vitro assessment of test compounds at 25 and 50 μM as time-dependent inhibitors of […] human hepatic cytochrome P450 isozymes (CYP1A2, 2B6, 2C9, 2C19, 2D6, and 3A4). LC-MS/MS was used to quantify metabolite formation. The inhibition of each P450 enzyme in human liver microsomes was measured as the percentage decrease in the activity of marker metabolite formation as measured by LC-MS/MS compared to non-inhibited controls (=100% activity) at time zero and after 30 minutes incubation. The occurrence of any time dependent inhibition was then expressed as the fold change in enzyme activity at time zero relative to the activity after 30 minutes incubation.

CYP2C9 = biological target: T2, CYP2C9 (Homo sapiens, UniProt P11712); assay: Time-dependent inhibition of CYP2C9 in human liver microsomes; assay type: in vitro ADME; conditions: for (% Activity NADPH T0)/(% Activity NADPH T30): fold change; for activity at 30 min, 25 µM / activity at 0 min, 25 µM / activity at 30 min, 50 µM / activity at 0 min, 50 µM: pooled human liver microsomes, human liver microsomes; for activity at 30 min, 25 µM / activity at 30 min, 50 µM: after 30 minutes incubation, read-out: % Activity NADPH T30; for activity at 0 min, 25 µM / activity at 0 min, 50 µM: time zero, read-out: % Activity NADPH T0
T2 construct: Pooled human microsomes and selective CYP probe substrates were used; from tissue; host or cells: pooled human liver microsomes
T2 sequence (P11712 whole entry): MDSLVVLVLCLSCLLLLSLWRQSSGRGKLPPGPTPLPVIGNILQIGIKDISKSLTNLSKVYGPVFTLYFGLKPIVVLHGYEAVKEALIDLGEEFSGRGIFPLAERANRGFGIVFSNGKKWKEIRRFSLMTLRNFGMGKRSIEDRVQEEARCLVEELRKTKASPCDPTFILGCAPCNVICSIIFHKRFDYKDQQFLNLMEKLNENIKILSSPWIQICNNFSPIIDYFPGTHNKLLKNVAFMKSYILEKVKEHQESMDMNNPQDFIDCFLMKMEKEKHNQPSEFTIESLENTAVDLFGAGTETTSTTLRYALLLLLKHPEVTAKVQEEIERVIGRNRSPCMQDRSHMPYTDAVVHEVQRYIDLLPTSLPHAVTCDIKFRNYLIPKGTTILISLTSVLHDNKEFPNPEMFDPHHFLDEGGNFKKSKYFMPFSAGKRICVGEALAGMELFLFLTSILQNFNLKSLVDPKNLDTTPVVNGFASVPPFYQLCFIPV
Protocol: as §1

CYP3A4 = biological target: T3, CYP3A4 (Homo sapiens, UniProt P08684); assay: Time-dependent inhibition of CYP3A4 in human liver microsomes (testosterone and midazolam probes); assay type: in vitro ADME; conditions: for (% Activity NADPH T0)/(% Activity NADPH T30): fold change; for activity at 30 min, 25 µM / activity at 30 min, 50 µM: human, after 30 minutes incubation, read-out: % Activity NADPH T30; for activity at 30 min, 25 µM / activity at 30 min, 50 µM / activity at 0 min, 25 µM / activity at 0 min, 50 µM: pooled human liver microsomes; for activity at 0 min, 25 µM / activity at 0 min, 50 µM: human liver microsomes, time zero, read-out: % Activity NADPH T0
T3 construct: Pooled human microsomes and selective CYP probe substrates were used; from tissue; host or cells: pooled human liver microsomes
T3 sequence (P08684 whole entry): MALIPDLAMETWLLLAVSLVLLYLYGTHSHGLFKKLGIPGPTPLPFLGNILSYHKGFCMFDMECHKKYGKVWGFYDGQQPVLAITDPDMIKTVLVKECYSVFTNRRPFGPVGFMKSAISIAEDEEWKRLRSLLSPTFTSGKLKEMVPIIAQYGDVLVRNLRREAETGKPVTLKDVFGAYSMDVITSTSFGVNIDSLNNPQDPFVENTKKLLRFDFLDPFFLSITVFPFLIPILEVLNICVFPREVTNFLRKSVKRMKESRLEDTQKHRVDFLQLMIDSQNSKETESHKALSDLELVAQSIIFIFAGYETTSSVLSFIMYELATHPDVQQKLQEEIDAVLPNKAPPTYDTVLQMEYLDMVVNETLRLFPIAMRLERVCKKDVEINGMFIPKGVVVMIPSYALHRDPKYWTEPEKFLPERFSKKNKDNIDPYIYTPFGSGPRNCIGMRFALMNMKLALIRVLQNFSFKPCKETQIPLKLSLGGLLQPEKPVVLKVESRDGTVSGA
Protocol: as §1

[2] = CYP3A4-M (midazolam probe substrate), 25 μM
[3] = CYP3A4-M (midazolam probe substrate), 50 μM
[4] = CYP3A4-T (testosterone probe substrate), 25 μM
[5] = CYP3A4-T (testosterone probe substrate), 50 μM

| SMILES | clearance [1] | Vd [1] | half-life [1] | (% Activity NADPH T0)/(% Activity NADPH T30) (CYP2B6; CYP2B6, 25 μM) | (% Activity NADPH T0)/(% Activity NADPH T30) (CYP2B6; CYP2B6, 50 μM) | activity at 30 min, 25 µM (CYP2B6; CYP2B6, 25 μM) | activity at 0 min, 25 µM (CYP2B6; CYP2B6, 25 μM) | activity at 30 min, 50 µM (CYP2B6; CYP2B6, 50 μM) | activity at 0 min, 50 µM (CYP2B6; CYP2B6, 50 μM) | (% Activity NADPH T0)/(% Activity NADPH T30) (CYP2C9; CYP2C9, 25 μM) | (% Activity NADPH T0)/(% Activity NADPH T30) (CYP2C9; CYP2C9, 50 μM) | activity at 30 min, 25 µM (CYP2C9; CYP2C9, 25 μM) | activity at 0 min, 25 µM (CYP2C9; CYP2C9, 25 μM) | activity at 30 min, 50 µM (CYP2C9; CYP2C9, 50 μM) | activity at 0 min, 50 µM (CYP2C9; CYP2C9, 50 μM) | (% Activity NADPH T0)/(% Activity NADPH T30) (CYP3A4; [2]) | (% Activity NADPH T0)/(% Activity NADPH T30) (CYP3A4; [3]) | (% Activity NADPH T0)/(% Activity NADPH T30) (CYP3A4; [4]) | (% Activity NADPH T0)/(% Activity NADPH T30) (CYP3A4; [5]) | activity at 30 min, 25 µM (CYP3A4; [2]) | other results |
| --- | --- | --- | --- | --- | --- | --- | --- | --- | --- | --- | --- | --- | --- | --- | --- | --- | --- | --- | --- | --- | --- |
| C[C@H]1CC[C@H](N2CC(=O)N(Cc3ccc(F)c(F)c3)C3(CN(C(N)=O)C3)C2=O)CC1 [Compound 5, 5-(3,4-difluorobenzyl)-8-((1r,4r)-4-methylcyclohexyl)-6,9-dioxo-2,5,8-triazaspiro[3.5]nonane-2-carboxamide] | 18.9 mL/min/kg | 4.08 L/kg | 3.08 h | 1.0 | 1.1 | 78% | 79% | 76% | 83% | 0.8 | 1.0 | 79% | 62% | 64% | 62% | 1.1 | 1.9 | 1.1 | 1.4 | 69% | activity at 30 min, 50 µM (CYP3A4; [3]): 35%; activity at 30 min, 25 µM (CYP3A4; [4]): 87%; activity at 30 min, 50 µM (CYP3A4; [5]): 68%; activity at 0 min, 25 µM (CYP3A4; [2]): 75%; activity at 0 min, 50 µM (CYP3A4; [3]): 67%; activity at 0 min, 25 µM (CYP3A4; [4]): 100%; activity at 0 min, 50 µM (CYP3A4; [5]): 98% |
| Cc1cc(CN2C(=O)CN([C@H]3CC[C@H](C)CC3)C(=O)C23CN(C(N)=O)C3)ccc1F [Compound 6, 5-(4-fluoro-3-methylbenzyl)-8-((1r,4r)-4-methylcyclohexyl)-6,9-dioxo-2,5,8-triazaspiro[3.5]nonane-2-carboxamide] | 28.2 mL/min/kg | 2.52 L/kg | 1.27 h | 1.1 | 1.1 | 83% | 95% | 77% | 87% | 1.2 | 1.0 | 41% | 48% | 33% | 34% | 1.0 | 0.8 | 1.3 | 1.4 | 89% | activity at 30 min, 50 µM (CYP3A4; [3]): 86%; activity at 30 min, 25 µM (CYP3A4; [4]): 76%; activity at 30 min, 50 µM (CYP3A4; [5]): 63%; activity at 0 min, 25 µM (CYP3A4; [2]): 89%; activity at 0 min, 50 µM (CYP3A4; [3]): 72%; activity at 0 min, 25 µM (CYP3A4; [4]): 95%; activity at 0 min, 50 µM (CYP3A4; [5]): 89% |
